US4535083A, “Cleavage products of 4',6'-didesoxy-4'-thio-,6'-amino-hepturonic acid nucleosides” (Bayer Aktiengesellschaft, priority 1982, dated 1985)
In brackets after ≈: the same amount, converted by molar mass.

Assays:
Test in all cases: in vitro agar dilution test (NCCLS), MIC
Format in all cases: cell-based
Staph. epid. 25185 = settings: inoculation density 10^4 per inoculation point
Procedure: (§1) In the in vitro agar dilution test according to the internationally customary test (American National Committee for Clinical Laboratory Standards=NCCLS), activity is found against the germs listed below.
(§2) The minimum inhibitory concentration (MIC) was determined by the agar dilution procedure, using an inoculator and an inoculation density of 10^4 per inoculation point. The MIC is the concentration at which no bacteria colonies grow.

E. coli Neumann = settings: Escherichia coli, inoculation density 10^4 per inoculation point
Procedure: as §1, §2

Klebs. 57 USA = settings: inoculation density 10^4 per inoculation point
Procedure: as §1, §2

Serratia 16001 = settings: inoculation density 10^4 per inoculation point
Procedure: as §1, §2

| SMILES | MIC (Staph. epid. 25185) | MIC (E. coli Neumann) | MIC (Klebs. 57 USA) | MIC (Serratia 16001) |
| --- | --- | --- | --- | --- |
| Cn1c(=NC(N)=O)ccn(C2SC(C(O)C(NC(=O)C(N)CO)C(=O)O)C(O)C2O)c1=O (stereo not shown) [1 X = NCONH2] | 64 µg/mL (≈ 134 µM) | 32 µg/mL (≈ 67.2 µM) | 4 µg/mL (≈ 8.4 µM) | – |
| Cn1c(=O)ccn(C2SC(C(O)C(NC(=O)C(N)CO)C(=O)O)C(O)C2O)c1=O (stereo not shown) [1 X = O] | – | – | – | 128 µg/mL (≈ 295 µM) |
